This note sets out measurements from patent US9149475B2, “Protein kinase C inhibitors and uses thereof” (Rigel Pharmaceuticals, Inc., priority 2009, dated 2015).

pIC50: −log10 of the molar value. Counter-ions that a name gives are not always drawn. A value given as a limit tells only on which side of the number the result lay.

A word on the pIC50: it is −log10 of the IC50, conventionally taken in molar units.

One assay concerns Human primary T cells. The assay is described as follows: IL-2 ELISA, human primary T cell, anti-CD3+CD28+ (whole cell assay). Particulars: Homo sapiens, T-cell, 24 h, human primary T cells stimulated with anti-CD3 + anti-CD28, 24 hours. It counts as cell-based. Summed up: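 IL-2 secreted over 24 h at 37° C was quantified by ELISA after plate-bound αCD3 (1 μg/ml) and αCD28 (5 μg/ml) stimulation, or PMA (0.5 ng/ml) with ionomycin (0.1 μM) as counter-screen. Cells were IL-2-starved primary human T cells, expanded from volunteer PBMC and exposed to compound for 1 hr beforehand.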
A general note: ELISA stands for enzyme-linked immunosorbent assay.
In the case of `CC(C)N1CCC(Oc2ccc(Nc3ncc(F)c(NC4CC(C)(C)N(C)C(C)(C)C4)n3)cc2C(F)(F)F)CC1` [III-101, 5-fluoro-N2-(4-(1-isopropylpiperidin-4-yloxy)-3-(trifluoromethyl)phenyl)-N4-(1,2,2,6,6-pentamethylpiperidin-4-yl)pyrimidine-2,4-diamine], the negative-log IC50 (pIC50) was more than 6.60. Same read-out and setting: the same measure for `CC(C)N1CCC(Oc2ccc(Nc3ncc(F)c(NC4CC(C)(C)NC(C)(C)C4)n3)cc2C(F)(F)F)CC1` [III-102, 5-fluoro-N2-(4-(1-isopropylpiperidin-4-yloxy)-3-(trifluoromethyl)phenyl)-N4-(2,2,6,6-tetramethylpiperidin-4-yl)pyrimidine-2,4-diamine]: 6.30 to 6.60.

In the case of `CC(C)N1CCC(Oc2ccc(Nc3ncc(F)c(NC4CC(C)(C)N(C)C(C)(C)C4)n3)cc2OC(F)F)C(F)C1` (centres unmarked) [III-103, N2-(3-(difluoromethoxy)-4-(3-fluoro-1-isopropylpiperidin-4-yloxy)phenyl)-5-fluoro-N4-(1,2,2,6,6-pentamethylpiperidin-4-yl)pyrimidine-2,4-diamine trifluoroacetate salt], the pIC50 is 6.30 to 6.60.

Consider `CC(C)N1CCC(Oc2ccc(Nc3ncc(F)c(NC4CC(C)(C)NC(C)(C)C4)n3)cc2OC(F)F)C(F)C1` (centres unmarked) [III-104, N2-(3-(difluoromethoxy)-4-(3-fluoro-1-isopropylpiperidin-4-yloxy)phenyl)-5-fluoro-N4-(2,2,6,6-tetramethylpiperidin-4-yl)pyrimidine-2,4-diamine trifluoroacetate salt], for which the negative logarithm of the IC50 (pIC50) is 6.00 to 6.30.

With `CC(C)N1CCC(Oc2ccc(Nc3ncc(F)c(NC4CC(C)(C)N(C)C(C)(C)C4)n3)cc2OC(F)F)C(F)(F)C1` (centres unmarked) [III-107, N2-(4-(3,3-difluoro-1-isopropylpiperidin-4-yloxy)-3-(difluoromethoxy)phenyl)-5-fluoro-N4-(1,2,2,6,6-pentamethylpiperidin-4-yl)pyrimidine-2,4-diamine], the pIC50 was 6.00 to 6.30.

As for `CC(C)N1CCC(Oc2ccc(Nc3ncc(F)c(NC4CC(C)(C)NC(C)(C)C4)n3)cc2OC(F)F)C(F)(F)C1` (centres unmarked) [III-108, N2-(4-(3,3-difluoro-1-isopropylpiperidin-4-yloxy)-3-(difluoromethoxy)phenyl)-5-fluoro-N4-(2,2,6,6-tetramethylpiperidin-4-yl)pyrimidine-2,4-diamine], the negative-log IC50 (pIC50) was 6.00 to 6.30. On the same count and under the same terms, next, `CC1(C)CC(Nc2nc(Nc3ccc(OC4CCOCC4)c(F)c3)ncc2F)CC(C)(C)N1` [III-109, 5-fluoro-N2-(3-fluoro-4-(tetrahydro-2H-pyran-4-yloxy)phenyl)-N4-(2,2,6,6-tetramethylpiperidin-4-yl)pyrimidine-2,4-diamine]: 6.00 to 6.30. For the compound `[2H]C([2H])([2H])N1C(C)(C)CC(Nc2nc(Nc3ccc(OC4CCN(C(C)C)CC4)c(OC(F)F)c3)ncc2F)CC1(C)C` [III-110, N2-(3-(difluoromethoxy)-4-(1-isopropylpiperidin-4-yloxy)phenyl)-5-fluoro-N4-(1-trideuteromethyl-2,2,6,6-tetramethylpiperidin-4-yl)pyrimidine-2,4-diamine], the pIC50 is more than 6.60.

For the compound `[2H]C([2H])([2H])N1C(C)(C)CC(Nc2nc(Nc3ccc(OC4CCN(C(C)C)CC4)c(Cl)c3)ncc2F)CC1(C)C` [III-111, N2-(3-(chloro)-4-(1-isopropylpiperidin-4-yloxy)phenyl)-5-fluoro-N4-(1-trideuteromethyl-2,2,6,6-tetramethylpiperidin-4-yl)pyrimidine-2,4-diamine], the negative logarithm of the IC50 (pIC50) is more than 6.60. Turning to `[2H]C([2H])([2H])N1C(C)(C)CC(Nc2nc(Nc3ccc(OC4CCN(C(C)C)CC4F)c(OC(F)F)c3)ncc2F)CC1(C)C` (centres unmarked) [III-112, N2-(3-(difluoromethoxy)-4-(3-fluoro-1-isopropylpiperidin-4-yloxy)phenyl)-5-fluoro-N4-(1-trideuteromethyl-2,2,6,6-tetramethylpiperidin-4-yl)pyrimidine-2,4-diamine], the pIC50 was 6.30 to 6.60. Still for that read-out and setting: the same measure for `[2H]C([2H])([2H])N1C(C)(C)CC(Nc2nc(Nc3ccc(C)c(-n4cnnn4)c3)ncc2F)CC1(C)C` [III-113, 5-fluoro-N2-(4-methyl-3-(1H-tetrazol-1-yl)phenyl)-N4-(1-trideuteromethyl-2,2,6,6-tetramethylpiperidin-4-yl)pyrimidine-2,4-diamine]: more than 6.60; for `[2H]C([2H])([2H])N1C(C)(C)CC(Nc2nc(Nc3cccc(-n4cnnn4)c3)ncc2F)CC1(C)C` [III-114, 5-fluoro-N2-(3-(1H-tetrazol-1-yl)phenyl)-N4-(1-trideuteromethyl-2,2,6,6-tetramethylpiperidin-4-yl)pyrimidine-2,4-diamine]: more than 6.60.

In the case of `[2H]C([2H])([2H])N1C(C)(C)CC(Nc2nc(Nc3cccc(-n4nnnc4C)c3)ncc2F)CC1(C)C` [III-115, 5-fluoro-N2-(3-(5-methyl-1H-tetrazol-1-yl)phenyl)-N4-(1-trideuteromethyl-2,2,6,6-tetramethylpiperidin-4-yl)pyrimidine-2,4-diamine], the pIC50 is more than 6.60. For the compound `CC1(C)CC(Nc2nc(Nc3cc(C4CC4)cc(-n4cnnn4)c3)ncc2F)CC(C)(C)N1` [III-116, N^2-(3-cyclopropyl-5-(1H-tetrazol-1-yl)phenyl)-5-fluoro-N^4(2,2,6,6-tetramethylpiperidin-4-yl)pyrimidine-2,4-diamine], the negative logarithm of the IC50 (pIC50) was more than 6.60. Same read-out and setting: the same measure for `CN1C(C)(C)CC(Nc2nc(Nc3cc(C4CC4)cc(-n4cnnn4)c3)ncc2F)CC1(C)C` [III-117, N^2-(3-cyclopropyl-5-(1H-tetrazol-1-yl)phenyl)-5-fluoro-N^4(1,2,2,6,6-pentamethylpiperidin-4-yl)pyrimidine-2,4-diamine]: more than 6.60; for `CC1(C)CC(Nc2nc(Nc3ccc(C4CC4)c(-n4cnnn4)c3)ncc2F)CC(C)(C)N1` [III-118, N^2-(4-cyclopropyl-3-(1H-tetrazol-1-yl)phenyl)-5-fluoro-N^4(2,2,6,6-tetramethylpiperidin-4-yl)pyrimidine-2,4-diamine]: more than 6.60; for `CN1C(C)(C)CC(Nc2nc(Nc3ccc(C4CC4)c(-n4cnnn4)c3)ncc2F)CC1(C)C` [III-119, N^2-(4-cyclopropyl-3-(1H-tetrazol-1-yl)phenyl)-5-fluoro-N^4(1,2,2,6,6-pentamethylpiperidin-4-yl)pyrimidine-2,4-diamine]: more than 6.60. `Cn1nnnc1-c1cc(Nc2ncc(F)c(NC3CC(C)(C)NC(C)(C)C3)n2)ccc1F` [III-120, 5-fluoro-N2-(4-fluoro-3-(1-methyl-1H-tetrazol-5-yl)phenyl)-N4-(2,2,6,6-tetramethylpiperidin-4-yl)pyrimidine-2,4-diamine]: the pIC50 is 6.00 to 6.30.

Staying with this assay, now noted: human primary T cells stimulated with anti-CD3 + anti-CD28, 24 hours.
As to `CC(C)N1CCC(Oc2ccc(Nc3ncc(F)c(NC4CC(C)(C)N(C)C(C)(C)C4)n3)cc2OC(F)F)C(F)C1` (centres unmarked) [III-105, N2-(3-(difluoromethoxy)-4-(3-fluoro-1-isopropylpiperidin-4-yloxy)phenyl)-5-fluoro-N4-(1,2,2,6,6-pentamethylpiperidin-4-yl)pyrimidine-2,4-diamine], the negative logarithm of the IC50 (pIC50) is more than 6.60. On the same count and under the same terms, next, `CC(C)N1CCC(Oc2ccc(Nc3ncc(F)c(NC4CC(C)(C)NC(C)(C)C4)n3)cc2OC(F)F)C(F)C1` (centres unmarked) [III-106, N2-(3-(difluoromethoxy)-4-(3-fluoro-1-isopropylpiperidin-4-yloxy)phenyl)-5-fluoro-N4-(2,2,6,6-tetramethylpiperidin-4-yl)pyrimidine-2,4-diamine]: more than 6.60.
